Measurements published in PubChem BioAssay (NCI).
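Five compound concentrations were applied to cells in 96-well plates for 48 hours; endpoints were derived by simple linear interpolation of the resulting dose-response curve. GI50 = concentration required for 50% inhibition of growth. The concentration for full growth arrest is given as TGI.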

What was measured:
Assay in all cases: NCI tumour cell line growth inhibition, 48 h
DMS 273 small cell lung = system: DMS 273 small cell lung
HOP-18 NSCLC = system: HOP-18 NSCLC
KM12 colon = system: KM12 colon
KM20L2 colon = system: KM20L2 colon
P388 leukemia = system: P388 leukemia
P388/ADR leukemia = system: P388/ADR leukemia
SN12K1 renal = system: SN12K1 renal
ACHN renal = system: ACHN renal
MDA-MB-231 breast = system: MDA-MB-231 breast
MDA-MB-435 = system: MDA-MB-435
TK-10 renal = system: TK-10 renal
CAKI-1 renal = system: CAKI-1 renal
LXFL 529 NSCLC = system: LXFL 529 NSCLC

SMILES | TGI (DMS 273 small cell lung) | TGI (HOP-18 NSCLC) | TGI (KM12 colon) | TGI (KM20L2 colon) | TGI (P388 leukemia) | TGI (P388/ADR leukemia) | TGI (SN12K1 renal) | TGI (ACHN renal) | TGI (TK-10 renal) | TGI (CAKI-1 renal) | other results
Nc1ccc2[nH]c3c(-c4ccccc4)nccc3c2c1 | > 100 µM | > 100 µM | > 100 µM | > 100 µM | 46.5 µM | > 100 µM | > 100 µM |  |  |  | 
C[C@]12CCc3nc(Nc4ccccc4)sc3C1=CC[C@@H]1[C@@H]2CC[C@]2(C)/C(=N/NC(N)=S)CC[C@@H]12 |  |  | > 100 µM |  |  |  |  | > 100 µM | > 100 µM |  | GI50 (ACHN renal): 3.67 µM; GI50 (KM12 colon): 6.17 µM; GI50 (MDA-MB-231 breast): 4.43 µM; TGI (MDA-MB-231 breast): > 100 µM; GI50 (MDA-MB-435): 3.05 µM; TGI (MDA-MB-435): > 100 µM; GI50 (TK-10 renal): 46.4 µM
COc1ccc(/C(Cl)=C(\C=O)c2ccc(F)cc2)cc1OC | 97.3 µM | 44.2 µM |  | 34.1 µM |  |  |  | 58.6 µM | > 100 µM | 63.2 µM | TGI (LXFL 529 NSCLC): 76.7 µM
Cc1[nH]c(=O)[nH]c(=O)c1/C=C/C(=O)O | > 1000 µM | > 1000 µM | > 1000 µM | > 1000 µM | > 1000 µM | > 1000 µM | > 1000 µM |  |  | > 1000 µM | GI50 (P388 leukemia): > 1 mM
N=C(N)c1ccc(N=Nc2c(O)ccc3c2[nH]c2ccccc23)cc1 |  |  |  |  |  |  |  | 86.4 µM | > 95.3 µM | > 100 µM | TGI (MDA-MB-435): > 39.6 µM
O=C(NC(Cc1ccc(I)cc1)C(=O)O)c1ccc(Br)cc1 (stereo not drawn) | > 100 µM | > 100 µM | > 100 µM | > 100 µM | > 100 µM | > 31.6 µM | > 100 µM |  |  | > 100 µM | 
COc1cc(Nc2c3ccccc3nc3ccccc23)ccc1NS(C)(=O)=O |  | 26.3 µM |  | 17.1 µM |  |  |  | 14.8 µM |  |  | TGI (LXFL 529 NSCLC): 35 µM
Cc1ccc(S(=O)(=O)OCC(=O)O)cc1 |  |  |  |  |  |  |  | > 100 µM | > 100 µM | > 100 µM | TGI (MDA-MB-231 breast): > 100 µM
